Reference: patent US12616753B2, “HSP70 inhibitors and methods of using same” (THE WISTAR INSTITUTE, priority 2020, dated 2026)

Columns and labels:
HSP70 = target: T1, HSP70 (Homo sapiens, UniProt P0DMV8); assay: HSP70 competition assay in H1299 cells; type: binding; settings: 10 μM, one-hour pre-incubation
T1 construct: BAP-4-139B successfully precipitated a single protein from H1299 cells; endogenous in cells; host or cells: H1299 human lung carcinoma cells
Procedure: FIGS. 1A-1D show ATPase inhibition and direct binding of a novel HSP70 inhibitor. FIG. 1A: Compounds AP-3-97 and AP-4-139B are direct inhibitors of HSP70. HSP70 mediated ATPase activity was assessed using the TRANSCREENER® ADP-FI assay. Five microliters of 30 nM purified human HSP70 in assay buffer was added to test compounds for 30 minutes, followed by addition of excess ATP. After 15 minutes, reactions were stopped and fluorescence was assessed on a plate reader. Data are normalized to percent inhibition, where 100% is the value in the absence of HSP70, and 0% is the value in the presence of HSP70. Compounds shown include PET-16 (positive control) and the novel HSP70 inhibitors AP-3-97 and AP-4-139B. VY-3-277 was used as a negative control. FIG. 1B: Compound AP-4-139B binds HSP70. Whole cell extracts (WCE) from H1299 cells were incubated with 10 μM Biotin or with a Biotin-labeled variant of AP-4-139B (Biotin-AP-4-139B) for 5 hours. Biotin-AP-4-139B containing complexes were captured using NeutrAvidin resins and separated by SDS-PAGE. The Coomassie-stained protein band of approximately 70 kDa was excised and subjected to tryptic digestion and liquid chromatography-tandem mass spectrometry, and identified to be HSP70. […] Data were analyzed using the evaluation software from Biacore and the resulting sensograms were exported and re-plotted in GraphPad Prism. […]

[1] = system: 1205Lu and HT-29 tumor cell lines; assay: Seahorse XF Cell Mito Stress Test, tumor cell lines; type: cell-based, human; settings: 500 nM (sublethal), 24 hours
Procedure: FIG. 2A: IMR90 cells (non-transformed fibroblasts), 1205Lu (melanoma), and HT-29 (CRC) cancer cells were treated with sub-lethal doses (500 nM) of the HSP70 inhibitors PET-16 (positive control) or AP-4-139B for 24 hours. Cells were then subjected to the Seahorse Mito Stress Test Assay. Injections were Oligomycin (1 μM, line A), FCPP (0.5-1 μM, line B), and Rotenone/Antimycin A (1 μM, line C). Each graphical representation indicates the mean±standard deviation of a minimum of 5 technical replicates. […] Each experiment was performed in triplicate and independently repeated twice. FIGS. 2B-2D: Basal Oxygen Consumption Rate (ORC) (FIG. 2B), Maximal OCR (FIG. 2C), and ATP production (FIG. 2D) were analyzed in IMR90 fibroblasts, non-transformed colonic epithelial cells (CCD 841 CoN), 1205Lu melanoma cells and HT-29 CRC cells, in the presence or absence of 500 nM HSP70 inhibitors or negative control (VY-3-277). All experiments were performed in triplicate, with each group containing 5-6 technical replicates. ** p<0.01, *** p<0.001, n.s. not significant.
The XF Cell Mito Stress Test was performed. […] For extracellular ATP release, ATP was measured using the CellTiter-Glo Kit (Promega catalog #G7570). […] 10 μl of CellTiter-Glo Reaction Mix was then mixed with 10 μl of culture media; the luminescence signal was detected using a luminometer.

T1 sequence (P0DMV8 whole entry): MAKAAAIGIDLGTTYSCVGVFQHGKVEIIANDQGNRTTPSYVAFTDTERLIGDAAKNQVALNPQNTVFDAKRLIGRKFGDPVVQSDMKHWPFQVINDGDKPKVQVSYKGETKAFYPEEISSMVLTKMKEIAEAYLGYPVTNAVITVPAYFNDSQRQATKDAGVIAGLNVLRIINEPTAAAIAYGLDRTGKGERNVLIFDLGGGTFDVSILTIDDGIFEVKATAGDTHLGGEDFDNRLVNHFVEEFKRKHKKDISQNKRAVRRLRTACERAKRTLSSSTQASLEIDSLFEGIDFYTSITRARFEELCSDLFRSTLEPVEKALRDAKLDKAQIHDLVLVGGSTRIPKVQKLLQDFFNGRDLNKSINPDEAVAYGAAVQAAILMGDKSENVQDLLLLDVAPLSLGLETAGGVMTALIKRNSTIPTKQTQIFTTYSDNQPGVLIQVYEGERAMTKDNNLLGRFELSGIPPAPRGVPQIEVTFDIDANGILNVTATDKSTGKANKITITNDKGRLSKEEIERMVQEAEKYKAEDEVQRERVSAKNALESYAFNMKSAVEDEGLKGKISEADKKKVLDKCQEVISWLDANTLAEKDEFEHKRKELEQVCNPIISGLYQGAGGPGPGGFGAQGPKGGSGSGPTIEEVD

SMILES	prevention of BAP-4-139B pull down of HSP70 (HSP70)	basal oxygen consumption rate and ATP production in tumor cell lines [1]
c1ccc(-c2cn3nc(CCCCCC[P+](c4ccccc4)(c4ccccc4)c4ccccc4)sc3n2)cc1 [AP-4-139B, Triphenyl(6-(6-phenylimidazo[2,1-b][1,3,4]thiadiazol-2-yl)hexyl)phosphonium bromide]	prevented the ability of BAP-4-139B to pull down HSP70	reduced basal oxygen consumption rate and ATP production
C(#C[P+](c1ccccc1)(c1ccccc1)c1ccccc1)c1ccccc1 [PET-16, Triphenyl(phenylethynyl)phosphonium bromide, reference compound]	prevented the ability of BAP-4-139B to pull down HSP70	minimal activity
